The target in one assay is T1, human V3 receptor (Homo sapiens, UniProt P47901).
T1 construct: expressed in transfected cells
T1 sequence (P47901 1-424): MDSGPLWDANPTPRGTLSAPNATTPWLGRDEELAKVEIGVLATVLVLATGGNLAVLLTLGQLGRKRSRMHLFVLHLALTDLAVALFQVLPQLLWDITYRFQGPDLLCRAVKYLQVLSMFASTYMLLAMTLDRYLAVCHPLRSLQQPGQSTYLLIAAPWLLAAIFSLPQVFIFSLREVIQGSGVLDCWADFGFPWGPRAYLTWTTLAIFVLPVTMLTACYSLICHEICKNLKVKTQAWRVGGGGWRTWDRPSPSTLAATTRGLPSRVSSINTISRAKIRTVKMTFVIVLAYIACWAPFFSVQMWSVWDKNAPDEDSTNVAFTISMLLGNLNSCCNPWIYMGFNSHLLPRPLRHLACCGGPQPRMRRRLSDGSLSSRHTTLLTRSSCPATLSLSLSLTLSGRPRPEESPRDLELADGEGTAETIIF
Put plainly: [3H]AVP binding to CHO cells stably expressing the human V3 receptor. The note with it: [3H]AVP 2.5x10^-9 mol/L. How it is done: Chinese Hamster Ovary (CHO) cells stably expressing the human V3 receptor were incubated to equilibrium with the test compound (at a final assay concentration of 10^−10 mol.L^−1 to 10^−5 mol.L^−1) and [^3H]AVP (at a final assay concentration of 2.5×10^−9 mol.L^−1). […] After washing with ice-cold phosphate buffered saline (PBS), scintillation fluid was added and the plates counted on a Topcount NXT apparatus.
A sigmoidal dose response curve (non-linear regression, variable slope) was plotted as concentration of test compound (mol.L^−1) against percentage specific binding of [^3H]AVP and a Ki value was calculated. Each determination was carried out in triplicate and repeated on at least 3 separate occasions

In a further assay the target is T2, V3 receptor (Rattus norvegicus, UniProt P48974).
T2 construct: Anterior pituitary corticotrophs were prepared from adult female Sprague-Dawley rats; endogenous in cells; host or cells: primary anterior pituitary corticotrophs from adult female Sprague-Dawley rats
T2 sequence (P48974 1-425): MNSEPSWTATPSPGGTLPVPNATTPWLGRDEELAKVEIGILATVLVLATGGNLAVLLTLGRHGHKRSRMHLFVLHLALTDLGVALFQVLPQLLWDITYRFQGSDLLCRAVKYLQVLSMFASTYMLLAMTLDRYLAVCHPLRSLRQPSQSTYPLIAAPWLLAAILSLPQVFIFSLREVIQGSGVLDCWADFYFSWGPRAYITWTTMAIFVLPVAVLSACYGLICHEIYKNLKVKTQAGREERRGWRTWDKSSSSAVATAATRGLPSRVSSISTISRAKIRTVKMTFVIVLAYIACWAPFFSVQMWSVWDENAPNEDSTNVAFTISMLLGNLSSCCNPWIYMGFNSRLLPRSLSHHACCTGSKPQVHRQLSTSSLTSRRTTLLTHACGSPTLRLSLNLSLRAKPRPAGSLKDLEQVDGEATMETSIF
Put plainly: Block of AVP-induced ACTH release from isolated rat anterior pituitary corticotrophs. The conditions noted are these: ACTH release after 3x10^-9 mol/L AVP for 120 minutes, ELISA; read-out: V3 receptor antagonism in isolated rat anterior pituitary cells. The class given is cell-based. How it is done:
The ability of compounds of the invention to act as V3 antagonists in a physiologically relevant system was determined by measuring their ability to block the release of adrenocorticotropic hormone (ACTH) from anterior pituitary corticotrophs in response to treatment with arginine vasopressin (AVP).
Anterior pituitary corticotrophs were prepared from adult female Sprague-Dawley rats and seeded into 48 well plates. The cells were cultured for 4 days prior to exposure to compound. Test compounds were prepared at […] in 100% DMSO. Cells were exposed to a dose response of test compounds for 20 minutes (10^−8 mol.L^−1-10^−5 mol.L^−1). The final concentration of DMSO in the assay was kept constant at 0.3%. The cells were then exposed to 3×10^−9 mol.L^−1 AVP for 120 minutes. Supernatants were harvested and stored at −20° C. ACTH levels were subsequently measured by ELISA following the manufacturer's instructions (Immunodiagnostic systems, UK (Cat No. DX-SDX018)). Each treatment was carried out in quadruplicate and a mean value obtained for the amount of ACTH released. The degree of antagonism was then calculated as a percentage of the amount of ACTH released by agonist alone after adjustment for basal levels of ACTH. A pIC50 was calculated by fitting a Sigmoidal dose response (variable slope) curve with a non-linear (fit) to the data using the software package GraphPad prism. […]
A general note: An ELISA detects its analyte on a solid surface through an enzyme-linked reagent.

Each structure is given as a SMILES string.

Consider `CC(C)NC(=O)Cn1c(-c2cccc(Cl)c2)nc2ccc(N3CCCNCC3)cc2c1=O` [Example 1b, 2-[2-(3-Chlorophenyl)-4-oxo-6-perhydro-1,4-diazepin-1-yl-4H-quinazolin-3-yl]-N-isopropylacetamide], for which the inhibition constant Ki at human V3 receptor was less than 10 nM. Compound `COc1cccc(-c2nc3ccc(N4CCNCC4)cc3c(=O)n2CC(=O)NC(C)C)c1` [Example 2b, N-Isopropyl-2-[2-(3-methoxyphenyl)-4-oxo-6-piperazin-1-yl-4H-quinazolin-3-yl]acetamide] gave a Ki on human V3 receptor of 10 to 100 nM. The same measure, in the same setting: as for `COc1cccc(-c2nc3ccc(N4CCCC(CN(C)C)C4)cc3c(=O)n2CC(=O)NC(C)C)c1` (centres unmarked) [Example 3c, 2-[6-(3-Dimethylaminomethyl-piperidin-1-yl)-2-(3-methoxyphenyl)-4-oxo-4H-quinazolin-3-yl]-N-isopropylacetamide], the figure is 10 to 100 nM; as for `COc1cccc(-c2nc3ccc(N4CCC[C@H](CN5CCCCC5)C4)cc3c(=O)n2CC(=O)NC(C)C)c1` [Example 3f, N-Isopropyl-2-[2-(3-methoxyphenyl)-4-oxo-6-((R)-3-piperidin-1-ylmethylpiperidin-1-yl)-4H-quinazolin-3-yl]acetamide], less than 10 nM. As for `COc1cccc(-c2nc3ccc(N4CCCN(C(C)C)CC4)cc3c(=O)n2CC(=O)NC(C)C)c1` [Example 4b, N-Isopropyl-2-[6-(4-isopropylperhydro-1,4-diazepin-1-yl)-2-(3-methoxyphenyl)-4-oxo-4H-quinazolin-3-yl]acetamide], the IC50 on V3 receptor was 10 to 100 nM. At human V3 receptor, `COc1cccc(-c2nc3ccc(N4CCCN(CC(F)(F)F)CC4)cc3c(=O)n2CC(=O)NC(C)C)c1` [Example 4c, N-Isopropyl-2-{2-(3-methoxyphenyl)-4-oxo-6-[4-(2,2,2-trifluoroethyl)Perhydro-1,4-diazepin-1-yl]-4H-quinazolin-3-yl}acetamide] returned a Ki of 100 to 1000 nM.

On human V3 receptor, `COCCN1CCCN(c2ccc3nc(-c4cccc(OC)c4)n(CC(=O)NC(C)C)c(=O)c3c2)CC1` [Example 4d, N-Isopropyl-2-[6-[4-(2-methoxyethyl)perhydro-1,4-diazepin-1-yl]-2-(3-methoxyphenyl)-4-oxo-4H-quinazolin-3-yl]acetamide] displayed a Ki of less than 10 nM. In turn, `CC(C)NC(=O)Cn1c(-c2ccc(F)c(Cl)c2)nc2ccc(N3CCCN(CC(C)(C)C)CC3)cc2c1=O` [Example 5Ac, 2-{2-(3-Chloro-4-fluorophenyl)-6-[4-(2,2-dimethylpropyl)perhydro-1,4-diazepin-1-yl]-4-oxo-4H-quinazolin-3-yl}-N-isopropylacetamide] had an inhibitory constant (Ki) on human V3 receptor of less than 10 nM.

The compound `CC(C)NC(=O)Cn1c(-c2ccc(F)c(Cl)c2)nc2ccc(N3CCN(C)CC(C)(C)C3)cc2c1=O` [Example 5s, 2-[2-(3-Chloro-4-fluorophenyl)-4-oxo-6-(4,6,6-trimethylperhydro-1,4-diazepin-1-yl)-4H-quinazolin-3-yl]-N-isopropylacetamide] gave a Ki at human V3 receptor of less than 10 nM. The same measure, in the same setting: the same measure for `CC(C)NC(=O)Cn1c(-c2cc(Cl)cc(OC(F)(F)F)c2)nc2ccc(N3CCCN(C(C)C)CC3)cc2c1=O` [Example 6w, 2-[2-(3-Chloro-5-trifluoromethoxyphenyl)-6-(4-isopropylperhydro-1,4-diazepin-1-yl)-4-oxo-4H-quinazolin-3-yl]-N-isopropylacetamide]: less than 10 nM; for `CC(C)(C)NC(=O)Cn1c(C2CCCC2)nc2ccc(N3CCCNCC3)cc2c1=O` [Example 7a]: 10 to 100 nM; for `COCC(C)NC(=O)Cn1c(-c2ccc(F)c(OC)c2)nc2ccc(N3CCN4CCC3CC4)cc2c1=O` (centres unmarked) [Example 9Ah, 2-[6-(1,4-Diazabicyclo[3.2.2]non-4-yl)-2-(4-fluoro-3-methoxyphenyl)-4-oxo-4H-quinazolin-3-yl]-N-(2-methoxy-1-methylethyl)acetamide]: 10 to 100 nM. Still for that read-out and setting: the same measure for `CCN1CCCN(c2ccc3nc(-c4ccc(F)c(OC)c4)n(CC(=O)NC(C)(C)C(F)(F)F)c(=O)c3c2)CC1` [Example 9h, 2-[6-(4-Ethylperhydro-1,4-diazepin-1-yl)-2-(4-fluoro-3-methoxyphenyl)-4-oxo-4H-quinazolin-3-yl]-N-(2,212-trifluoro-1,1-dimethylethyl)acetamide]: less than 10 nM. The same measure, in the same setting: the same measure for `CC(C)N1CCCN(c2ccc3nc(-c4cccc(Cl)c4)n(CC(=O)N(C)C(C)C)c(=O)c3c2)CC1` [Example 9u, 2-[2-(3-Chlorophenyl)-6-(4-isopropylperhydro-1,4-diazepin-1-yl)-4-oxo-4H-quinazolin-3-yl]-N-isopropyl-N-methylacetamide]: 10 to 100 nM.

For orientation: Ki means the equilibrium dissociation constant of an inhibitor or competing ligand from its target.

Values taken from patent publication US7820649B2, “Quinazolinone and isoquinolinone acetamide derivatives” (N.V. Organon, priority 2006, dated 2010).
